Test results from US20200077655A1, “Use of an Acyclic Picolinamide Compound as a Fungicide for Control of Phytopathogenic Fungi in Orchard, Vineyard and Plantation Crops” (Dow AgroSciences LLC, priority 2017, published 2020).

What was measured:
Format in all cases: in vivo
[1] = system: Erysiphe necator (UNCINE); experiment: Field assessment of grape powdery mildew; conditions: grapes, 5% EC + Trycol
Excerpt: A fungicidal treatment containing Compound I, applied in a 5% EC formulation and tank mixed with an adjuvant (Trycol, 50% w/w at 0.2% v/v), was sprayed on the plant canopy of grape plants (VITVI, Chardonnay variety) at rates of 50, 100 and 150 grams of active ingredient per hectare (g ai/ha). The trial was based on six foliar applications during the growing season at approximately 10 day intervals with natural infections in open field conditions. The treatment was part of an experimental trial designed as a randomized complete block with four replications and a plot of approximately 3.0×7.0 m. Formulations of compound I were applied at water volume of 1000 L/ha, using a self-propelled multi-plot track sprayer (TRACTAIR, Andreoli Engineering) and pressurized at 400 kPa.
Disease evaluations were recorded as percent of leaves and fruit with disease (incidence) and percent diseased area on leaves and fruit (severity, using 100 random leaves and fruit bunches. Grape powdery mildew was assessed three times, with the initial assessment at 2 days after the fourth application. Area under the disease progress curve (AUDPC) was calculated for each plot using the sets of recorded severity data. Relative AUDPC (% control based on AUDPC) was calculated as percent of the nontreated control. Results are given in Table 8.

[2] = system: Podosphaera leucotricha (PODOLE); experiment: Field assessment of apple powdery mildew; conditions: apples, 5% EC + ETHOMEEN T18H
Method: Assessment of compound I of PODOLE on apples was performed in two separate field trials. For the first trial, a fungicidal treatment containing a 5% EC formulation of compound I plus an adjuvant (ETHOMEEN T18H, 50% w/w at 1.0% v/v), was sprayed on the plant canopy of apples (MABSD, Imperatore Dallago variety) seven times during the growing season, the first application at BBCH 61 of plant growth stage, under natural infection of powdery mildew under open field conditions. The following six applications were applied in approximately 10 day intervals. Formulations of compound I were applied at rates of 100, 150, and 200 grams of active ingredient per hectare (g ai/ha). The treatment was part of an experimental trial designed as a randomized complete block with four replications and a plot of approximately 4.2×7.5 m. Formulations of compound I were applied at water volume of 800 L/ha, using a backpack plot sprayer (TRACKSP, Andreoli Engineering) and pressurized at 450 kPa.
For the second trial, a fungicidal treatment containing a 5% EC formulation of compound I plus an adjuvant (ETHOMEEN T18H, 50% w/w at 1.0% v/v), was sprayed on the plant canopy of apples (MABSD, Imperatore Dallago variety) seven times during the growing season, the first application at BBCH 61 of plant growth stage, under natural infection of powdery mildew under open field conditions. The following six applications were applied in approximately 10 day intervals. Formulations of compound I were applied at rates of 100, 150, and 200 grams of active ingredient per hectare (g ai/ha). The treatment was part of an experimental trial designed as a randomized complete block with four replications and a plot of approximately 4.2×7.5 m. Formulations of compound I were applied at water volume of 800 L/ha, using a self-propelled multi-plot track sprayer (TRACKSP, Andreoli Engineering) and pressurized at 450 kPa.
Disease severity in both trials was assessed as the percentage of leaf incidence and leaf infection on a random selection of 100 leaves. In the first trial, powdery mildew infection was assessed three times, 3 days after application D (3DAAD), 7DAAF, and SDAAG. In the second trial, powdery mildew infection was assessed four times, 6DAAB, 2DAAD, 7DAAF and SDAAG. Area under the disease progress curve (AUDPC) was calculated for each plot using the sets of recorded visual infection data. Relative AUDPC (% control based on AUDPC) was calculated as percent of the nontreated control.

Monilinia laxa (MONILA) = experiment: Field assessment on brown rot of flowers in stone fruits (apricots); conditions: 5% EC + Trycol, field grown apricots, protectant
Excerpt: A fungicidal treatment containing Compound I, applied in a 5% EC formulation and tank mixed with an adjuvant (Trycol, 50% w/w at 0.2% v/v), was sprayed twice during the flowering period on the plant canopy of apricots (PRNAR, Protici variety) at rates of 50, 100, and 150 grams of active ingredient per hectare (g ai/ha). The applications were done at 7 day intervals with disease inoculation at the last application (protectant). The treatment was part of an experimental trial designed as a randomized complete block with four replications and a plot of approximately 4.7×3.1 m, with compound I being applied using a MISTBLOW, Solo backpack applicator at a water volume of 500 L/ha. MONILA disease was evaluated on flowers on a sample of 10 pre-marked branches per tree. The number of infected flowers was counted and consequently the percent incidence was calculated. Visual infection was assessed three times during the trial at 10, 14 and 20 days after the second application. Area under the disease progress curve (AUDPC) was calculated for each plot using the sets of recorded severity data. Relative AUDPC (% control based on AUDPC) was calculated as percent of the nontreated control.

[3] = system: Podosphaera clandestina (PODOCL); experiment: Field assessment of powdery mildew in cherry; conditions: cherry leaves, 14 DAA5
Excerpt: A fungicidal treatment containing Compound I, applied in an SC formulation (MSO built-in) and tank mixed with an adjuvant (Agnique BP-420, 50% w/w at 0.2% v/v or Adsee C80W 80%), was sprayed on cherry trees (PRNAV, Sentennial variety) at growth stage (mid petal fall, flowers fading, petals falling; BBCH 67-85) at rates of 60, 120, 150, and 180 g ai/ha. The experimental plots were run with natural infestation. The treatment was part of an experimental trial designed as a randomized complete block (RCB) with four replications and a plot of approximately 4×6 m. Compound I was applied at water volume of 1000 L/ha, using an Airblast sprayer.
Disease severity (percentage of visual diseased foliage (leaf) on whole plot) and disease incidence were assessed 14 days after application 5 (14 DAA5). The disease infection was recorded. Disease was evaluated as percent of leaves with disease (incidence), percent diseased leaf area (severity, a disease index calculated (percent (%) incidence×percent (%) severity) and then percent (%) control was calculated using Abbotts from the disease index values. Results are given in Table 12.

Structure (SMILES): COc1ccnc(C(=O)N[C@@H](C)C(=O)O[C@@H](C)C(c2ccc(F)cc2)c2ccc(F)cc2)c1OC(C)=O [Compound I, (S)-1,1-bis(4-fluorophenyl)propan-2-yl (3-acetoxy-4-methoxypicolinoyl)-L-alaninate]
- Percent control (AUDPC) from bunch infection assessments ([1]; 50 g ai/ha): B (51-75)
- Percent control (AUDPC) from bunch infection assessments ([1]; 100 g ai/ha): B (51-75)
- Percent control (AUDPC) from bunch infection assessments ([1]; 150 g ai/ha): A (76-100)
- Percent control (AUDPC) from leaf infection assessments ([1]; 50 g ai/ha): A (76-100)
- Percent control (AUDPC) from leaf infection assessments ([1]; 100 g ai/ha): A (76-100)
- Percent control (AUDPC) from leaf infection assessments ([1]; 150 g ai/ha): A (76-100)
- Percent control (AUDPC) from leaf infection assessments ([2]; Trial 1, 100 g ai/ha): B (51-75)
- Percent control (AUDPC) from leaf infection assessments ([2]; Trial 1, 150 g ai/ha): A (76-100)
- Percent control (AUDPC) from leaf infection assessments ([2]; Trial 1, 200 g ai/ha): A (76-100)
- Percent control (AUDPC) from leaf infection assessments ([2]; Trial 2, 100 g ai/ha): A (76-100)
- Percent control (AUDPC) from leaf infection assessments ([2]; Trial 2, 150 g ai/ha): A (76-100)
- Percent control (AUDPC) from leaf infection assessments ([2]; Trial 2, 200 g ai/ha): A (76-100)
- % Control (AUDPC) from flower incidence assessments (Monilinia laxa (MONILA); 50 g ai/ha): B (51-75)
- % Control (AUDPC) from flower incidence assessments (Monilinia laxa (MONILA); 100 g ai/ha): A (76-100)
- % Control (AUDPC) from flower incidence assessments (Monilinia laxa (MONILA); 150 g ai/ha): A (76-100)
- Calc Percent Control of PODOCL ([3]; 60 g ai/ha, Agnique BP420, 240 mL/ha): 64.6%
- Calc Percent Control of PODOCL ([3]; 60 g ai/ha, MSO, 120 g ai/ha): 63.3%
- Calc Percent Control of PODOCL ([3]; 120 g ai/ha, Adsee C80W 80%, 300 g ai/ha): 44.4%
- Calc Percent Control of PODOCL ([3]; 120 g ai/ha, Agnique BP420, 480 mL/ha): 46.9%
- Calc Percent Control of PODOCL ([3]; 120 g ai/ha, MSO, 240 g ai/ha): 37.9%
- Calc Percent Control of PODOCL ([3]; 150 g ai/ha, Agnique BP420, 600 mL/ha): 44.4%
- Calc Percent Control of PODOCL ([3]; 150 g ai/ha, MSO, 300 g ai/ha): 91.7%
- Calc Percent Control of PODOCL ([3]; 180 g ai/ha, Agnique BP420, 720 mL/ha): 48.7%
- Calc Percent Control of PODOCL ([3]; 180 g ai/ha, MSO, 360 g ai/ha): 89.1%
